According to the NIST ThermoML archive (doi:10.1021/je1002829):
Numbers after ± are expanded uncertainties.

Assay: xn = mol fraction of the nth substance listed
Details: for mass density: 101 kPa, Liquid, Pycnometric method

CCCCC(=O)O [pentanoic acid] + O
Details | mass density, 293.15 K [kg/m3] | mass density, 298.15 K [kg/m3] | mass density, 303.15 K [kg/m3] | mass density, 308.15 K [kg/m3] | surface tension liquid-gas, 293.15 K [mN/m] | surface tension liquid-gas, 298.15 K [mN/m] | surface tension liquid-gas, 303.15 K [mN/m] | surface tension liquid-gas, 308.15 K [mN/m]
x1 = 0.00015 | 998.24 ± 0.34 | 997.08 ± 0.37 | 995.67 ± 0.39 | 994.07 ± 0.41 | – | – | – | –
x1 = 0.00016 | – | – | – | – | 63.92 ± 1.3 | 64.63 ± 1.3 | 63.6 ± 1.3 | 63.01 ± 1.3
x1 = 0.00043 | 998.28 ± 0.34 | 997.12 ± 0.37 | 995.68 ± 0.4 | 994.07 ± 0.41 | – | – | – | –
x1 = 0.00048 | – | – | – | – | 57.45 ± 1.2 | 57.4 ± 1.2 | 56.82 ± 1.2 | 56.37 ± 1.2
x1 = 0.00056 | – | – | – | – | 56.19 ± 1.2 | 56.09 ± 1.2 | 55.49 ± 1.2 | 55.07 ± 1.2
x1 = 0.0006 | 998.31 ± 0.34 | 997.14 ± 0.37 | 995.72 ± 0.4 | 994.09 ± 0.42 | – | – | – | –
x1 = 0.00083 | – | – | – | – | 52.45 ± 1.1 | 52.12 ± 1.1 | 51.63 ± 1.1 | 51.27 ± 1.1
x1 = 0.00099 | – | – | – | – | 50.54 ± 1.1 | 50.05 ± 1.1 | 49.71 ± 1.1 | 49.38 ± 1.1
x1 = 0.00106 | 998.36 ± 0.35 | 997.18 ± 0.37 | 995.77 ± 0.4 | 994.1 ± 0.42 | – | – | – | –
x1 = 0.00121 | – | – | – | – | 48.25 ± 1.1 | 47.66 ± 1.1 | 47.43 ± 1.1 | 47.13 ± 1.1
x1 = 0.00143 | 998.42 ± 0.35 | 997.22 ± 0.37 | 995.77 ± 0.4 | 994.12 ± 0.42 | – | – | – | –
x1 = 0.00148 | 998.43 ± 0.35 | 997.23 ± 0.37 | 995.79 ± 0.4 | 994.12 ± 0.42 | – | – | – | –
x1 = 0.0015 | – | – | – | – | 45.82 ± 1 | 45.32 ± 1 | 44.93 ± 1 | 44.64 ± 1
x1 = 0.00173 | – | – | – | – | 44.26 ± 1 | 43.88 ± 1 | 43.28 ± 1 | 43 ± 1
x1 = 0.0018 | 998.47 ± 0.35 | 997.25 ± 0.37 | 995.81 ± 0.4 | 994.13 ± 0.42 | – | – | – | –
x1 = 0.00195 | 998.49 ± 0.35 | 997.28 ± 0.37 | 995.82 ± 0.4 | 994.15 ± 0.42 | – | – | – | –
x1 = 0.00196 | – | – | – | – | 42.94 ± 1 | 42.57 ± 1 | 41.86 ± 0.99 | 41.59 ± 0.98
x1 = 0.00205 | 998.5 ± 0.35 | 997.29 ± 0.37 | 995.83 ± 0.4 | 994.14 ± 0.42 | – | – | – | –
x1 = 0.00219 | – | – | – | – | 41.78 ± 0.99 | 41.26 ± 0.98 | 40.63 ± 0.97 | 40.36 ± 0.97
x1 = 0.00222 | 998.52 ± 0.35 | 997.29 ± 0.37 | 995.83 ± 0.4 | 994.16 ± 0.42 | – | – | – | –
x1 = 0.00228 | 998.54 ± 0.35 | 997.31 ± 0.37 | 995.84 ± 0.4 | 994.16 ± 0.42 | – | – | – | –
x1 = 0.0025 | 998.56 ± 0.35 | 997.33 ± 0.37 | 995.86 ± 0.4 | 994.18 ± 0.42 | – | – | – | –
x1 = 0.00259 | – | – | – | – | 39.97 ± 0.96 | 39.16 ± 0.95 | 38.8 ± 0.94 | 38.54 ± 0.94
x1 = 0.00271 | 998.58 ± 0.35 | 997.35 ± 0.37 | 995.88 ± 0.4 | 994.19 ± 0.42 | – | – | – | –
x1 = 0.00283 | – | – | – | – | 38.97 ± 0.95 | 38.18 ± 0.94 | 37.81 ± 0.93 | 37.57 ± 0.93
x1 = 0.00289 | 998.62 ± 0.35 | 997.37 ± 0.37 | 995.89 ± 0.4 | 994.19 ± 0.42 | – | – | – | –
x1 = 0.00299 | – | – | – | – | 38.32 ± 0.94 | 37.6 ± 0.93 | 37.18 ± 0.92 | 36.94 ± 0.92
x1 = 0.00305 | 998.63 ± 0.35 | 997.4 ± 0.37 | 995.91 ± 0.4 | 994.21 ± 0.42 | – | – | – | –
x1 = 0.00326 | – | – | – | – | 37.25 ± 0.92 | 36.51 ± 0.91 | 36.1 ± 0.91 | 35.9 ± 0.9
x1 = 0.00349 | – | – | – | – | 36.38 ± 0.91 | 35.61 ± 0.9 | 35.15 ± 0.89 | 34.97 ± 0.89
x1 = 0.0035 | 998.69 ± 0.35 | 997.43 ± 0.37 | 995.94 ± 0.4 | 994.23 ± 0.42 | – | – | – | –

CCC(=O)O [propanoic acid] + O
Details | mass density, 293.15 K [kg/m3] | mass density, 298.15 K [kg/m3] | mass density, 303.15 K [kg/m3] | mass density, 308.15 K [kg/m3] | surface tension liquid-gas, 293.15 K [mN/m] | surface tension liquid-gas, 298.15 K [mN/m] | surface tension liquid-gas, 303.15 K [mN/m] | surface tension liquid-gas, 308.15 K [mN/m]
x1 = 0.00861 | – | – | – | – | 53.75 ± 1.2 | 52.45 ± 1.1 | 52.18 ± 1.1 | 51.48 ± 1.1
x1 = 0.01457 | 1000.94 ± 0.37 | 999.46 ± 0.39 | 997.79 ± 0.4 | 996.38 ± 0.41 | 49.8 ± 1.1 | 49.01 ± 1.1 | 48.47 ± 1.1 | 47.97 ± 1.1
x1 = 0.02075 | – | – | – | – | 46.86 ± 1.1 | 46.29 ± 1.1 | 45.79 ± 1 | 45.31 ± 1
x1 = 0.03268 | 1004.5 ± 0.37 | 1002.95 ± 0.39 | 1001.28 ± 0.44 | 998.86 ± 0.48 | 42.79 ± 1 | 42.3 ± 0.99 | 41.69 ± 0.98 | 41.23 ± 0.98
x1 = 0.0455 | – | – | – | – | 39.75 ± 0.96 | 39.16 ± 0.95 | 38.43 ± 0.94 | 37.89 ± 0.93
x1 = 0.05436 | 1008.59 ± 0.42 | 1006.51 ± 0.43 | 1004.63 ± 0.46 | 1002.08 ± 0.5 | 38.2 ± 0.94 | 37.55 ± 0.93 | 36.83 ± 0.92 | 36.18 ± 0.91
x1 = 0.06602 | – | – | – | – | 36.71 ± 0.91 | 36.04 ± 0.91 | 35.36 ± 0.9 | 34.61 ± 0.89
x1 = 0.0747 | – | – | – | – | 35.93 ± 0.9 | 35.28 ± 0.89 | 34.6 ± 0.89 | 33.85 ± 0.87
x1 = 0.0869 | 1014.63 ± 0.49 | 1011.95 ± 0.5 | 1009.33 ± 0.49 | 1006.91 ± 0.5 | 35.19 ± 0.89 | 34.59 ± 0.88 | 33.85 ± 0.87 | 33.19 ± 0.87
x1 = 0.1019 | 1017.46 ± 0.51 | 1014.23 ± 0.54 | 1011.41 ± 0.51 | 1008.86 ± 0.52 | – | – | – | –
x1 = 0.1095 | – | – | – | – | 34.48 ± 0.88 | 33.94 ± 0.88 | 33.04 ± 0.86 | 32.62 ± 0.86
x1 = 0.128 | 1020.75 ± 0.48 | 1017.92 ± 0.54 | 1014.77 ± 0.56 | 1011.7 ± 0.63 | 34.1 ± 0.88 | 33.59 ± 0.87 | 32.68 ± 0.86 | 32.35 ± 0.85
x1 = 0.1494 | – | – | – | – | 33.68 ± 0.87 | 33.18 ± 0.87 | 32.43 ± 0.85 | 32 ± 0.85
x1 = 0.171 | 1025.1 ± 0.54 | 1021.28 ± 0.63 | 1017.58 ± 0.63 | 1013.89 ± 0.68 | 33.22 ± 0.87 | 32.71 ± 0.86 | 32.27 ± 0.85 | 31.51 ± 0.84
x1 = 0.1823 | – | – | – | – | 32.96 ± 0.86 | 32.45 ± 0.85 | 32.21 ± 0.85 | 31.21 ± 0.84
x1 = 0.1947 | 1025.78 ± 0.59 | 1022.21 ± 0.63 | 1018.26 ± 0.67 | 1014.09 ± 0.7 | – | – | – | –
x1 = 0.2318 | 1026.54 ± 0.64 | 1022.48 ± 0.67 | 1018.39 ± 0.69 | 1014.03 ± 0.73 | – | – | – | –
x1 = 0.2485 | 1026.51 ± 0.68 | 1022.21 ± 0.68 | 1018.12 ± 0.69 | 1013.78 ± 0.72 | – | – | – | –
x1 = 0.2755 | 1026.19 ± 0.69 | 1021.74 ± 0.69 | 1017.72 ± 0.7 | 1013.1 ± 0.74 | – | – | – | –
x1 = 0.3043 | 1025.42 ± 0.68 | 1021.28 ± 0.68 | 1017.05 ± 0.71 | 1012.52 ± 0.75 | – | – | – | –
x1 = 0.333 | 1024.97 ± 0.67 | 1020.74 ± 0.68 | 1016.65 ± 0.74 | 1011.57 ± 0.81 | – | – | – | –
x1 = 0.3701 | 1024.09 ± 0.66 | 1019.95 ± 0.7 | 1015.5 ± 0.77 | 1010.29 ± 0.82 | – | – | – | –
x1 = 0.4001 | 1023.22 ± 0.7 | 1018.88 ± 0.72 | 1014.2 ± 0.76 | 1009.37 ± 0.78 | – | – | – | –
